{"source": "paper PMC4389443", "about": "(Respiratory Research, 2015)", "key": {"normal volunteers [1]": {"system": "normal volunteers", "design": "method as in PMID 19643947, PMID 21426372, PMID 24341382", "details": "cited from earlier work"}, "normal volunteers [2]": {"system": "normal volunteers", "design": "method as in PMID 19643947, PMID 21426372, PMID 24341382", "details": "cited from earlier work", "remark": "listed apart in the source"}, "[3]": {"system": "patients with severe neutrophilic asthma", "design": "method as in PMID 23291349", "details": "significance lost when all patients analysed together; cited from earlier work"}, "BALB/c mice [4]": {"system": "BALB/c mice", "assay": "House dust mite/Rhinovirus exacerbated asthma model", "format": "in vivo, mouse", "details": "24 hours post RV1b infection; for Total BALF neutrophils: PXS-4728A 2, dexamethasone 2, azithromycin 25 mg.kg^−1 ip.", "method": "Study performed at the University of Newcastle under local ethics committee. BALB/c mice were sensitized and challenged intranasally to 50 μg of crude HDM extract (Dermatophagoides pteronyssinus extract was obtained from Greer Laboratories) on days 0, 1 and 2 followed by four exposures of 5 μg HDM daily from day 14 to day 17 delivered in 50 μl of sterile saline. Animals were then infected on day 18 with infective Human Rhinovirus 1b RV1B41 (2.5 × 10^6 median tissue culture infective dose) intranasally. Mice were intranasally administered 50 μl infective or ultraviolet light (UV)–inactivated RV1B41. Mice were euthanized 24 hours after the rhinovirus challenge. BAL analysis was performed for total and differential counts and airway hyperreactivity (AHR) was assessed invasively by measurement of total lung resistance and dynamic compliance (BUXCO) in response to methacholine challenge as previously described. […]. Dose of azithromycin was chosen based on previously described findings, in respiratory viral infection models."}, "C57/BL6 mice": {"system": "C57/BL6 mice", "assay": "Cecal ligation and puncture (CLP) induced sepsis", "details": "6 hours; PXS-4728A 6 mg.kg^−1, dexamethasone 5 mg.kg^−1, oral 1 hour prior to surgery"}, "BALB/c mice [5]": {"system": "BALB/c mice", "assay": "Klebsiella pneumoniae lung infection", "details": "24 hours"}, "BALB/c mice [6]": {"system": "BALB/c mice", "assay": "LPS airway inflammation, 6 hour time point", "details": "6 hours after LPS; PXS-4728A 0.2 or 2 mg.kg^−1, dexamethasone 10 mg.kg^−1, oral 1 hour prior"}, "[7]": {"details": "PXS-4728A 6 mg.kg^−1, dexamethasone 10 mg.kg^−1, oral 1 hour prior to infection"}}}
{"smiles": "C[C@H](CO)Nc1nc(SCc2cccc(F)c2F)nc2[nH]c(=O)sc12", "note": "[AZD8309]", "values": [{"measurement": "Efficacy during inhaled LPS challenge", "setting": "normal volunteers [1]", "result": "efficacious"}]}
{"smiles": "O=C(Nc1ccc(Cl)c(S(=O)(=O)N2CCNCC2)c1O)Nc1cccc(F)c1Cl", "note": "[SB-656933]", "values": [{"measurement": "Increased neutrophil content in sputum as a result of ozone challenge", "setting": "normal volunteers [2]", "result": "inhibit"}]}
{"smiles": "CC[C@@H](Nc1c(Nc2cccc(C(=O)N(C)C)c2O)c(=O)c1=O)c1ccc(C)o1", "note": "[SCH527123]", "values": [{"measurement": "Increased neutrophil content in sputum as a result of ozone challenge", "setting": "normal volunteers [2]", "result": "inhibit"}]}
{"smiles": "CC[C@H]1OC(=O)[C@H](C)[C@@H](O[C@H]2C[C@@](C)(OC)[C@@H](O)[C@H](C)O2)[C@H](C)[C@@H](O[C@@H]2O[C@H](C)C[C@H](N(C)C)[C@H]2O)[C@](C)(O)C[C@@H](C)CN(C)[C@H](C)[C@@H](O)[C@]1(C)O", "note": "[azithromycin]", "values": [{"measurement": "Exacerbation rates", "setting": "[3]", "result": "reduced exacerbation rates"}, {"measurement": "Airways hyperreactivity to methacholine challenge", "setting": "BALB/c mice [4]; PXS-4728A 2, azithromycin 25 mg.kg^−1 ip.", "result": "significantly reduced"}, {"measurement": "Total BALF neutrophils", "setting": "BALB/c mice [4]", "result": "significantly dampened"}]}
{"smiles": "C[C@@H]1C[C@H]2[C@@H]3CCC4=CC(=O)C=C[C@]4(C)[C@@]3(F)[C@@H](O)C[C@]2(C)[C@@]1(O)C(=O)CO", "note": "[dexamethasone, reference compound]", "values": [{"measurement": "Peritoneal neutrophils", "setting": "C57/BL6 mice", "result": "greatly diminished"}, {"measurement": "Total peritoneal inflammatory cells", "setting": "C57/BL6 mice", "result": "greatly diminished"}, {"measurement": "Neutrophil migration into the airway spaces (BALF)", "setting": "BALB/c mice [5]; [7]", "result": "significantly dampened"}, {"measurement": "Total leukocyte migration into the airway spaces (BALF)", "setting": "BALB/c mice [5]; [7]", "result": "significantly dampened"}, {"measurement": "Log 10-CFU in the lung (bacterial load), average", "setting": "BALB/c mice [5]; PXS-4728A 6 mg.kg^−1, dexamethasone 10 mg.kg^−1, vehicle 7.59", "result": 8.86, "unit": "LOG 10-CFU"}, {"measurement": "Influx of neutrophils in BALF", "setting": "BALB/c mice [6]", "result": "reduction"}, {"measurement": "Total BALF neutrophils", "setting": "BALB/c mice [4]", "result": "no impact"}]}
